± gives the uncertainty stated by the source.
Experiment: xn = mol fraction of the nth substance listed

CCCC[n+]1ccn(C)c1.[Br-] + CCOCCO
viscosity [mPa·s], 100 kPa
Details	x1 = 0.1002	x1 = 0.2001	x1 = 0.3007	x1 = 0.3992	x1 = 0.5001	x1 = 0.5986	x1 = 0.7001	x1 = 0.8005	x1 = 0.9002	x1 = 1
298.15 K	12.5 ± 1.4	42.5 ± 4.4	88.9 ± 9.2	139 ± 14	191 ± 20	253 ± 27	356 ± 39	541 ± 62	880 ± 100	1451 ± 180
303.15 K	8.68 ± 0.91	25.6 ± 2.7	51.1 ± 5.3	78.5 ± 8.2	108 ± 11	142 ± 15	197 ± 21	295 ± 33	480 ± 55	837 ± 99
308.15 K	6.44 ± 0.67	17.4 ± 1.8	32.8 ± 3.4	50 ± 5.1	67 ± 6.9	87.1 ± 9.1	117 ± 12	171 ± 18	278 ± 31	506 ± 57
313.15 K	5.02 ± 0.52	12.5 ± 1.3	23 ± 2.4	34.3 ± 3.5	45.3 ± 4.7	58.1 ± 6	75.6 ± 7.9	108 ± 11	171 ± 18	330 ± 37

CC[n+]1ccn(C)c1.[Cl-] + CC#N
Details	viscosity [mPa·s]
373 K, 100 kPa, x2 = 0.284	12 ± 5

CCCCCCCCCC[N+](CC)(CC)CCCCCCCCCC.[Br-] + O
electrical conductivity [S/m]
Details	290.55 K	290.75 K	290.85 K	292.05 K	301.55 K	303.15 K	304.55 K	306.65 K	311.65 K
100 kPa, x1 = 1.08e-06	–	–	–	–	–	0.0029 ± 0.0012	–	–	–
101 kPa, x1 = 0.0004187	0.031 ± 0.013	0.033 ± 0.013	0.034 ± 0.014	0.053 ± 0.022	0.079 ± 0.032	–	0.082 ± 0.033	0.084 ± 0.034	0.089 ± 0.036

CC[n+]1ccccc1.O=S(=O)([O-])C(F)(F)F + O
101 kPa
Details	viscosity [mPa·s]
293.15 K, x1 = 0.067	2.47 ± 0.15
298.15 K, x1 = 0.067	2.16 ± 0.13
298.15 K, x1 = 0.498	15.04 ± 0.91
313.15 K, x1 = 0.689	17.4 ± 1
343.15 K, x1 = 0.689	8.42 ± 0.51
353.15 K, x1 = 0.893	10.74 ± 0.65

CC[n+]1ccn(C)c1C.F[B-](F)(F)F + CC(C)=O
viscosity [mPa·s], 101.3 kPa
Details	x1 = 0.02954	x1 = 0.06403	x1 = 0.1051	x1 = 0.1544	x1 = 0.215	x1 = 0.2913	x1 = 0.3887	x1 = 0.5201
293.15 K	0.42 ± 0.036	0.615 ± 0.052	0.797 ± 0.068	1.19 ± 0.1	1.82 ± 0.16	3.37 ± 0.29	7.01 ± 0.61	15.8 ± 1.3
298.15 K	0.402 ± 0.034	0.59 ± 0.05	0.767 ± 0.065	1.119 ± 0.095	1.7 ± 0.15	3.09 ± 0.27	6.27 ± 0.55	13.2 ± 1.1
303.15 K	0.384 ± 0.033	0.563 ± 0.048	0.726 ± 0.062	1.048 ± 0.089	1.59 ± 0.14	2.81 ± 0.24	5.66 ± 0.49	11.59 ± 0.99
308.15 K	0.368 ± 0.031	0.54 ± 0.05	0.687 ± 0.058	0.986 ± 0.084	1.48 ± 0.13	2.57 ± 0.22	5.13 ± 0.44	10.2 ± 0.87
313.15 K	0.354 ± 0.03	0.516 ± 0.044	0.652 ± 0.055	0.929 ± 0.079	1.38 ± 0.12	2.36 ± 0.2	4.67 ± 0.4	9.03 ± 0.77
318.15 K	0.34 ± 0.029	0.496 ± 0.042	0.62 ± 0.053	0.874 ± 0.074	1.29 ± 0.11	2.16 ± 0.19	4.26 ± 0.37	8.14 ± 0.69
323.15 K	0.327 ± 0.028	0.478 ± 0.04	0.588 ± 0.05	0.825 ± 0.07	1.22 ± 0.1	1.96 ± 0.17	3.91 ± 0.34	7.34 ± 0.63

CCCC[n+]1ccn(C)c1.[Br-] + COCCO
viscosity [mPa·s], 100 kPa
Details	298.15 K	303.15 K	308.15 K	313.15 K
x1 = 0.4	–	–	43.9 ± 4.5	28 ± 2.9
x1 = 0.5	–	101 ± 11	–	40.3 ± 4.2
x1 = 0.7002	350 ± 39	–	–	75 ± 7.8

CCCCCCCCCCCC[N+](C)(C)Cc1ccccc1.[Cl-] + CC(C)[C@H](NC(=O)CN)C(=O)O + O
electrical conductivity [S/m], 101 kPa
Details	293.15 K	298.15 K	303.15 K	308.15 K	313.15 K
x2 = 0.0008945, x1 = 0.0002772	0.0811 ± 0.0051	0.0911 ± 0.0057	0.102 ± 0.0063	0.114 ± 0.007	0.127 ± 0.0077
x2 = 0.0008945, x1 = 0.0002957	0.0841 ± 0.0053	0.0945 ± 0.0059	0.106 ± 0.0065	0.118 ± 0.0073	0.132 ± 0.008
x2 = 0.0008945, x1 = 0.0003197	0.0879 ± 0.0055	0.099 ± 0.0062	0.112 ± 0.0069	0.124 ± 0.0076	0.138 ± 0.0084
x2 = 0.0008946, x1 = 0.0001647	0.0603 ± 0.0038	0.0672 ± 0.0042	0.0747 ± 0.0046	0.0825 ± 0.0051	0.0908 ± 0.0056
x2 = 0.0008946, x1 = 0.0001903	0.066 ± 0.0041	0.0736 ± 0.0046	0.0819 ± 0.0051	0.0907 ± 0.0056	0.1 ± 0.0061
x2 = 0.0008946, x1 = 0.0002151	0.0707 ± 0.0044	0.0791 ± 0.0049	0.0882 ± 0.0055	0.0978 ± 0.006	0.108 ± 0.0066
x2 = 0.0008946, x1 = 0.0002373	0.0746 ± 0.0047	0.0834 ± 0.0052	0.0932 ± 0.0058	0.103 ± 0.0064	0.115 ± 0.007
x2 = 0.0008946, x1 = 0.0002578	0.0779 ± 0.0049	0.0874 ± 0.0054	0.0977 ± 0.006	0.109 ± 0.0067	0.121 ± 0.0074
x2 = 0.0008947, x1 = 7.118e-05	0.0298 ± 0.0019	0.0334 ± 0.0021	0.0372 ± 0.0023	0.041 ± 0.0025	0.0451 ± 0.0028
x2 = 0.0008947, x1 = 9.37e-05	0.0378 ± 0.0024	0.0423 ± 0.0026	0.0471 ± 0.0029	0.052 ± 0.0032	0.0571 ± 0.0035
x2 = 0.0008947, x1 = 0.0001168	0.0458 ± 0.0029	0.0513 ± 0.0032	0.0569 ± 0.0035	0.0627 ± 0.0039	0.0689 ± 0.0043
x2 = 0.0008947, x1 = 0.00014	0.0533 ± 0.0033	0.0596 ± 0.0037	0.0662 ± 0.0041	0.0729 ± 0.0045	0.0801 ± 0.0049
x2 = 0.0008948, x1 = 4.976e-05	0.022 ± 0.0014	0.0246 ± 0.0015	0.0275 ± 0.0017	0.0304 ± 0.0019	0.0335 ± 0.0021
x2 = 0.001798, x1 = 0.0001623	0.0582 ± 0.0036	0.0649 ± 0.004	0.0722 ± 0.0044	0.0797 ± 0.0049	0.0879 ± 0.0054
x2 = 0.001798, x1 = 0.0001897	0.0643 ± 0.004	0.0719 ± 0.0045	0.08 ± 0.0049	0.0885 ± 0.0054	0.098 ± 0.006
x2 = 0.001798, x1 = 0.0002152	0.0693 ± 0.0044	0.0776 ± 0.0048	0.0866 ± 0.0053	0.096 ± 0.0059	0.106 ± 0.0066
x2 = 0.001798, x1 = 0.0002386	0.0736 ± 0.0046	0.0825 ± 0.0051	0.0922 ± 0.0057	0.102 ± 0.0063	0.114 ± 0.007
x2 = 0.001798, x1 = 0.0002594	0.0773 ± 0.0049	0.0868 ± 0.0054	0.097 ± 0.006	0.108 ± 0.0066	0.12 ± 0.0074
x2 = 0.001798, x1 = 0.0002777	0.0804 ± 0.0051	0.0903 ± 0.0056	0.101 ± 0.0062	0.113 ± 0.007	0.126 ± 0.0077
x2 = 0.001798, x1 = 0.0002962	0.0834 ± 0.0052	0.0939 ± 0.0058	0.105 ± 0.0065	0.118 ± 0.0072	0.131 ± 0.0081
x2 = 0.001798, x1 = 0.0003218	0.0878 ± 0.0055	0.099 ± 0.0061	0.112 ± 0.0069	0.124 ± 0.0077	0.139 ± 0.0086
x2 = 0.001799, x1 = 4.099e-05	0.0199 ± 0.0012	0.0223 ± 0.0014	0.0251 ± 0.0016	0.0278 ± 0.0017	0.0307 ± 0.0019
x2 = 0.001799, x1 = 6.551e-05	0.0284 ± 0.0018	0.0319 ± 0.002	0.0356 ± 0.0022	0.0393 ± 0.0024	0.0433 ± 0.0027
x2 = 0.001799, x1 = 8.875e-05	0.0363 ± 0.0023	0.0406 ± 0.0025	0.0453 ± 0.0028	0.0499 ± 0.0031	0.0549 ± 0.0034
x2 = 0.001799, x1 = 0.0001114	0.0437 ± 0.0027	0.0488 ± 0.003	0.0543 ± 0.0034	0.0598 ± 0.0037	0.066 ± 0.0041
x2 = 0.001799, x1 = 0.000136	0.0512 ± 0.0032	0.0571 ± 0.0035	0.0635 ± 0.0039	0.0695 ± 0.0043	0.0771 ± 0.0048

Source: the CheMixHub ionic liquid set
